One assay deals with T1, Adenosine receptor A2b (Homo sapiens, UniProt P29275).
T1 sequence (P29275 whole entry): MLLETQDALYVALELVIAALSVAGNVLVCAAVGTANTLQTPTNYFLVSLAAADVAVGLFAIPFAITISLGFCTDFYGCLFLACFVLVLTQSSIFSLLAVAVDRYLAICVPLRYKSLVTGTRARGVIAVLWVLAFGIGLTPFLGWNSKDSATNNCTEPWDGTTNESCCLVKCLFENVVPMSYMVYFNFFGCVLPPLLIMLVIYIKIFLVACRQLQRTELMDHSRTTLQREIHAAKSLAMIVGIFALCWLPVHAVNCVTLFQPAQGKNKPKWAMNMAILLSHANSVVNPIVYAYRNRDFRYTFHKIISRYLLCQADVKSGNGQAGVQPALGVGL
Description: Agonistic effect at human adenosine A2B receptor in CHO cells. It is filed as functional, cell-based.

The target of the next assay is Adenosine receptor A2a (Homo sapiens, UniProt P29274). In words: Displacement of [3H]R-PIA or [3H]CGS 21680 from human adenosine A2A receptor in CHO cells. The format is cell-based.
Assay [1] concerns the target T2, Adenosine receptor A3 (Rattus norvegicus, UniProt P28647).
T2 sequence (P28647 whole entry): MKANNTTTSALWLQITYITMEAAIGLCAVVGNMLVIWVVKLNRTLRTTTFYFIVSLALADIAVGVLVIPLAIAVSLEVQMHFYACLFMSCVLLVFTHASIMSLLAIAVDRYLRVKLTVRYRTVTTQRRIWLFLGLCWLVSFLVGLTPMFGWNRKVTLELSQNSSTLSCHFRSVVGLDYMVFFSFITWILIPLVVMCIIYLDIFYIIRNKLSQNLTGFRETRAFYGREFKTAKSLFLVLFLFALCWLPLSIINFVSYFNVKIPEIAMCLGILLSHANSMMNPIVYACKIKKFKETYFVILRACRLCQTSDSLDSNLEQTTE
In words: Binding affinity to rat adenosine A3 receptor in CHO cells. The format is cell-based.

The target in assay [2] is T3, Adenosine receptor A3 (Homo sapiens, UniProt P0DMS8).
T3 sequence (P0DMS8 whole entry): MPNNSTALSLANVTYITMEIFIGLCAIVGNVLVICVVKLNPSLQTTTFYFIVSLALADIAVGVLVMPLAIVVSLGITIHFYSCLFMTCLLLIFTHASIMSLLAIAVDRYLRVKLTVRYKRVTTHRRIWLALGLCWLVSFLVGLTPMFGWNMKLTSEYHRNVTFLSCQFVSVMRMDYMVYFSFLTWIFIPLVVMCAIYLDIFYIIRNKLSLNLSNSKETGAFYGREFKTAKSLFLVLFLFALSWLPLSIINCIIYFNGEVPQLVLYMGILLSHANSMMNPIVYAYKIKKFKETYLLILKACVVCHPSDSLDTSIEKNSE
Description: Binding affinity to human adenosine A3 receptor in CHO cells.

The target of assay [3] is T4, Adenosine receptor A3 (Homo sapiens) (UniProt P0DMS8).
T4 sequence (whole entry): T3 sequence (P0DMS8 whole entry)
Description: Maximal agonist effect at human adenosine A3 receptor in CHO cells at 10 uM by the inhibition of forskolin-stimulated cAMP production. It is filed as functional, cell-based. Details: scale not given: the % may be the effect or the level left.

The target of assay [4] is T5, Adenosine receptor A1 (Homo sapiens, UniProt P30542).
T5 sequence (P30542 whole entry): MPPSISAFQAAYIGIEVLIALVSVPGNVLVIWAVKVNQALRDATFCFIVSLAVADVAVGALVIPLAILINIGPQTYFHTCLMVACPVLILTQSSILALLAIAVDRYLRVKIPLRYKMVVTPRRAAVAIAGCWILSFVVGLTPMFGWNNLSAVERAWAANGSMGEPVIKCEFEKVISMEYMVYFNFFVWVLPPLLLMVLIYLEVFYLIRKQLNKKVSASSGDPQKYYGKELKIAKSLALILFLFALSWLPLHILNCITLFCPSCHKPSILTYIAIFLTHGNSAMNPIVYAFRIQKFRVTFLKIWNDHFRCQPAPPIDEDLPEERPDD
Description: Displacement of [3H]R-PIA or [3H]CGS 21680 from human adenosine A1 receptor in CHO cells. The format is cell-based.

For assay [5], the target named is T5, Adenosine receptor A1. In words: Agonistic effect at human adenosine A1 receptor in CHO cells. The format is functional, cell-based.
In assay [6] the target is T6, Adenosine receptor A1 (Rattus norvegicus, UniProt P25099).
T6 sequence (P25099 whole entry): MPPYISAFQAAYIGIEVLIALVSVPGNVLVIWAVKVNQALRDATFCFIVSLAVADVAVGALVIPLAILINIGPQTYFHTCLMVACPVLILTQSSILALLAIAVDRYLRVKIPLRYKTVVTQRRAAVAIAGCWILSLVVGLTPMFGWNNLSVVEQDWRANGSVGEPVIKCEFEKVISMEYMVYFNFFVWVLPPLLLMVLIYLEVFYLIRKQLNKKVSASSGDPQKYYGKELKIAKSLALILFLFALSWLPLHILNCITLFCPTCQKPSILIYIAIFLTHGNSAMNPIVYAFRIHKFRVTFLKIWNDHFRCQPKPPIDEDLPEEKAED
In words: Binding affinity to rat adenosine A1 receptor in CHO cells.

In assay [7] the target is T3, Adenosine receptor A3. Description: Agonistic effect at human adenosine A3 receptor in CHO cells. It is filed as functional, cell-based.

Adenosine receptor A2a, sequence (P29274 whole entry): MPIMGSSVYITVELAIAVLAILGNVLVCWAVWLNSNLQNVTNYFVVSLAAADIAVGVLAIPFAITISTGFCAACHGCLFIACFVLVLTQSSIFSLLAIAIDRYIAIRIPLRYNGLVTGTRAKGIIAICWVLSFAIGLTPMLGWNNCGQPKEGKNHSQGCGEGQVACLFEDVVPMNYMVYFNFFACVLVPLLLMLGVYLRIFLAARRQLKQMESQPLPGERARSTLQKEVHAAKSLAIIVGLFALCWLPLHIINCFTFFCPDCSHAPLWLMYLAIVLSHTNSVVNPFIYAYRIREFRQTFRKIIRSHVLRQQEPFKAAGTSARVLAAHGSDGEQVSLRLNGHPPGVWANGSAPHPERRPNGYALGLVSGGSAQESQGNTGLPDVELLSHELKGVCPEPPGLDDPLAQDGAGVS

Turning to `CNC(=O)C12C[C@@H]1[C@@H](n1cnc3c(NC4CCCC4)ncnc31)[C@H](O)[C@@H]2O` (single isomer, unassigned), the 50% effective concentration (EC50) at Adenosine receptor A2b is more than 10000 nM. The inhibition constant Ki on Adenosine receptor A2a was 6420 nM; at Adenosine receptor A3 [1] it was 10.2 nM; on Adenosine receptor A3 [2], 13.1 nM. For the same compound, the Activity in assay [3] is 93%.

As to `OC[C@H]1O[C@@H](n2cnc3c(NC4C5CCC4CC5)ncnc32)[C@H](O)[C@@H]1O` (stereo partly specified), the Ki amounted to 229 nM at Adenosine receptor A3 [1] and 112 nM on Adenosine receptor A3 [2]. Further, in [3], the Activity is 112%.

As for `OC[C@H]1O[C@@H](n2cnc3c(NC4CCCC4)ncnc32)[C@H](O)[C@@H]1O` [N6-CYCLOPENTYLADENOSINE], the Ki at Adenosine receptor A2a stood at 462 nM; on Adenosine receptor A3 [2] it was 240 nM. Besides, the Activity in [3] was 72%.

Consider `OC[C@H]1O[C@@H](n2cnc3c(NC4CCCC4)nc(Cl)nc32)[C@H](O)[C@@H]1O`, for which, in assay [3], the Activity is 0%.

Consider `CNC(=O)C12C[C@@H]1[C@@H](n1cnc3c(NC4C5CCC4CC5)nc(Cl)nc31)[C@H](O)[C@@H]2O` (single isomer, unassigned), for which, on Adenosine receptor A2b, the concentration for a half-maximal effect (EC50) was more than 10000 nM. For the same compound, the inhibition constant (Ki) is more than 10000 nM on Adenosine receptor A2a, 9.6 nM on Adenosine receptor A3 [1], 190 nM on Adenosine receptor A1 [4] and 14.6 nM on Adenosine receptor A3 [2]. The compound also registered an Activity in [3] of 92%.

On to `CNC(=O)C12C[C@@H]1[C@@H](n1cnc3c(NC4CCCC4)nc(Cl)nc31)[C@H](O)[C@@H]2O` (single isomer, unassigned), for which the EC50 at Adenosine receptor A2b is more than 10000 nM; at Adenosine receptor A1 [5], 8.2 nM; on Adenosine receptor A3 [7], 2.8 nM. The Ki at Adenosine receptor A2a came to 3250 nM; on Adenosine receptor A1 [4], 18.3 nM; on Adenosine receptor A1 [6] it was 17.4 nM; on Adenosine receptor A3 [2], 3.7 nM. This compound also came in with an Activity in assay [3] of 101%.

For the origin of these results see ChEMBL document CHEMBL1140427, “Semi-rational design of (north)-methanocarba nucleosides as dual acting A(1) and A(3) adenosine receptor agonists: novel prototypes for cardioprotection” (J Med Chem, 2005).
